Measured values from ChEMBL document CHEMBL3784949 (Psychopharmacology (Berl), 1987).

Columns and labels:
[1] = Terminal half life in psychotic patient (9 patients) at 2.9 +/- 1.2 mg, po by reversed phase HPLC method; format: ADME, organism-based; settings: human, in vivo, 2.9 mg, read-out: beta t1/2 (converted)
[2] = Volume of distribution at steady state in psychotic patient (9 patients) at 3.5 +/- 1.2 mg, iv by reversed phase HPLC method; format: ADME, organism-based; settings: human, in vivo, 3.5 mg, read-out: Vdss
[3] = Terminal phase volume of distribution at steady state in psychotic patient (9 patients) at 3.5 +/- 1.2 mg, iv by reversed phase HPLC method; format: ADME, organism-based; settings: human, in vivo, 3.5 mg, read-out: Vbeta
[4] = Unbound fraction in psychotic patient (9 patients) at 3.5 +/- 1.2 mg, iv by reversed phase HPLC method; format: ADME, organism-based; settings: human, in vivo
[5] = Terminal phase volume of distribution at steady state in psychotic patient (9 patients) at 3.5 +/- 1.2 mg, iv by reversed phase HPLC method based model-dependent approach analysis; format: ADME, organism-based; settings: human, in vivo, 3.5 mg, read-out: Vbeta
[6] = Unbound fraction in human serum; format: ADME, cell-free
[7] = Terminal phase volume of distribution at steady state in psychotic patient (9 patients) at 3.5 +/- 1.2 mg, iv by reversed phase HPLC method based model-independent approach analysis; format: ADME, organism-based; settings: human, in vivo, 3.5 mg, read-out: Vbeta
[8] = Terminal half life in psychotic patient (9 patients) at 3.5 +/- 1.2 mg, iv by reversed phase HPLC method; format: ADME, organism-based; settings: human, in vivo, 3.5 mg, read-out: beta t1/2 (converted)
[9] = test system: Plasma; test: Plasma concentration in psychotic patient; format: ADME; settings: human

Compound O=C(CCCN1CCC(O)(c2ccc(Cl)cc2)CC1)c1ccc(F)cc1 [HALOPERIDOL] has a half-life [1] of 18.1 h, a Vd [2] of 7.9 L/kg and a Vd [3] of 9.5 L/kg. It also gave a Fu [4] of 0.6%, a Vd [5] of 9.6 L/kg and a fraction unbound [6] of 0.08. The Vd [7] was 9.5 L/kg, the half-life [8] was 18.8 h and the Cp [9] was 5 ng/mL.
